Measurements as given in patent publication US20110166079A1, “METHODS OF TREATING CANCER WITH APOE PEPTIDES” (COGNOSCI, INC., priority 2008, published 2011).
Read-outs that look alike come from different tables or passages of the source. Non-standard residues stand in square brackets, D forms with d. Residues, ends and D or L forms follow the SMILES beside them. No end group written: not given here. Arg(NO2) = N=C(NCCC[C@H](N)C(=O)O)N[N+](=O)[O-]; Aib = CC(C)(N)C(=O)O

Key:
B-CLL cells = test: Cytotoxicity on B-CLL cells from CLL patients (MTS assay); conditions: for Fold Change: EC50 relative to COG056 control
Protocol: To determine whether COG peptides could counteract the overactivation of the Akt/NFkB pathway in B-CLL cells and effectively induce apoptosis, cytotoxicity testing was performed on freshly isolated B-CLL cells from CLL patients with COG peptides. Blood from CLL patients was collected and CD5+/CD19+ CLL cells were isolated using the RosetteSep™ Human B Cell Enrichment Cocktail. This method depletes whole blood of T cells, monocytes, and NK cells using a proprietary antibody cocktail containing anti-CD14, anti-CD2 and anti-CD16 antibodies to remove T cells, monocytes, and NK cells, respectively. The antibody cocktail crosslinks unwanted cells in human whole blood to multiple red blood cells forming immunorosettes thereby increasing the density of the rosetted cells, such that they pellet along with the free RBCs when centrifuged over a buoyant density medium such as Ficoll-Paque®. The highly enriched B-cell or B-CLL cells are left at the interface between Ficoll and the plasma.
COG peptides were applied to the isolated B-CLL cells (0.25×10^6 cells/well in a 96 well plate) for 72 hours, after which viable cells were assessed using the MTS assay ([…]).
Additional B-CLL cells and peripheral blood mononuclear cells (PBMC; i.e., normal B cells) were isolated from leukemia patients and normal volunteers, respectively, and were treated with a range of COG112 concentrations.

PP2A = target: T1, PP2A (Mus musculus, UniProt P63330); test: PP2A activity in RAW cells (immunoprecipitation / phosphate release); type: cell-based; conditions: 30 minutes, 2 μM COG112, 10 nM okadaic acid, FIG. 3
T1 construct: cells were lysed and PP2A was immunoprecipitated by adding an antibody targeted to the catalytic C-subunit of PP2A; endogenous in cells; host or cells: mouse macrophagic RAW cells
T1 sequence (P63330 whole entry): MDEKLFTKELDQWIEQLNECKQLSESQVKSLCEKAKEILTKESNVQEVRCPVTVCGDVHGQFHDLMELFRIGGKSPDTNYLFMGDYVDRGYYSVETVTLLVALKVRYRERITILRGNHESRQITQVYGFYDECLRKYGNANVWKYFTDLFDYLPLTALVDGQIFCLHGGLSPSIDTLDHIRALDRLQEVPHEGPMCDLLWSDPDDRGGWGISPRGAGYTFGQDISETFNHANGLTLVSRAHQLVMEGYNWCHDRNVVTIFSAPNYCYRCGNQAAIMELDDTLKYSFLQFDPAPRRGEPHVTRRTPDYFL
Protocol: Mouse macrophagic RAW cells were incubated with either 2 μM COG112 (SEQ ID NO: 2), 10 nM okadaic acid (an inhibitor of PP2A), or okadaic acid and COG112. After 30 minutes, cells were lysed and PP2A was immunoprecipitated by adding an antibody targeted to the catalytic C-subunit of PP2A. Half of the immunoprecipitate was separated by SDS-PAGE, blotted on to nitrocellulose, and probed with an anti-PP2AC antibody. The remaining portion was assayed for activity by adding 125 μL assay cocktail containing a phospho-threonine substrate peptide to the immunoprecipitated enzyme. After incubating at 37° C. with shaking, a 25 μL aliquot was removed and added to an ammonium molybdate solution (Upstate) that chelates free phosphate and changes color upon chelate formation. Aliquots were removed at various time intervals and the amount of free phosphate released from the peptide was determined by comparison to a phosphate standard curve. The rate of phosphate release was determined by linear fit to the time course data and was normalized to the relative PP2A concentration. […] PP2A activity was reduced in the presence of okadaic acid alone as expected. […] Thus, the active pool of PP2A in a cell can be regulated by ApoE peptides.

IκB = test: LPS-induced phosphorylation of IκB in BV2 microglia (Western blot); type: cell-based, mouse; conditions: 100 ng/mL LPS, 5 μM COG133, FIG. 2A
Protocol: To determine whether COG peptides modulated the PI-3 kinase/Akt pathway and subsequent activation of NFκB, the phosphorylation state of proteins in the pathway was analyzed in cells exposed to bacteria or a bacterial antigen (lipopolysaccharide) in the absence and presence of COG peptides. In a first series of experiments, mouse BV2 microglia in six well plates were incubated with 100 ng/mL of LPS alone or in the presence of 5 μM COG133 (SEQ ID NO: 1) peptide. Cells were lysed and a clarified extract prepared by centrifugation. Polyacrylamide gels were loaded with 30 μg of extract per lane and run in SDS buffer. […] Membranes were then probed with an anit-phospho-IκBα antibody. Membranes were developed with Enhanced Chemiluminescence substrates (GE healthcare) and visualized by exposure to film. Membranes were then stripped and reprobed for total IκB using a non phospho-specific anti-IκBα antibody. A duplicate blot was probed with anti-GAPDH antibodies.

NFκB = NFκB nuclear translocation in LPS-stimulated BV2 microglial cells (gel shift); type: cell-based, mouse; conditions: nuclear extracts, FIG. 2B
Protocol: In the dephosphorylated state, IκB binds to the transcription factor NFκB and prevents it from translocating to the nucleus to activate transcription of pro-survival proteins. […] A radiolabeled oligonucelotide containing a NFκB binding site was added to the proteins from the nuclear extracts and the proteins were subsequently separated by non-denaturing polyacrylamide gel electrophoresis. The amount of NFκB present in the nuclear extracts was detected by autoradiography (FIG. 2B). Nuclear NFκB was reduced in the presence of COG133 providing further evidence that this signal transduction cascade is suppressed in cells treated with ApoE peptides.

microglial cells = conditions: relative to COG133, microglial cells; cited from earlier work
[1] = B-CLL cells, 72 hours, MTS assay

Compound: CC(C)C[C@H](NC(=O)[C@H](CC(C)C)NC(=O)[C@H](CCCNC(=N)N)NC(=O)[C@H](CCCCN)NC(=O)[C@H](CCCNC(=N)N[N+](=O)[O-])NC(=O)[C@H](CC(C)C)NC(=O)[C@H](CCCNC(=N)N)NC(=O)[C@H](CCCCN)NC(=O)[C@H](CC(C)C)NC(=O)C(C)(C)NC(=O)[C@H](CO)NC(=O)[C@H](C)NC(=O)[C@H](CC(C)C)NC(=O)[C@H](CCCNC(=N)N)NC(=O)[C@@H](NC(=O)[C@H](CCCNC(=N)N)NC(=O)[C@@H](N)CC(C)C)C(C)C)C(=O)O [COG248, LRVRLAS(Aib)LKRL(nitroR)KRLL] (H-LRVRLAS[Aib]LKRL[Arg(NO2)]KRLL-OH)
- cytotoxic activity compared in words (B-CLL cells; [1]): enhanced activity compared to COG133
- Fold Change (B-CLL cells): 5.5

Compound: C=C1[C@@H](O)[C@@H]2O[C@]3(CC[C@H](/C=C/[C@@H](C)[C@@H]4CC(C)=C[C@@]5(O[C@H](C[C@@](C)(O)C(=O)O)CC[C@H]5O)O4)O3)CC[C@H]2O[C@@H]1[C@@H](O)C[C@H](C)[C@H]1O[C@@]2(CCCCO2)CC[C@H]1C [okadaic acid, reference compound]
- PP2A activity (rate of phosphate release) (PP2A): reduced

Compound: CC(=O)N[C@@H](CC(C)C)C(=O)N[C@@H](CCCNC(=N)N)C(=O)N[C@H](C(=O)N[C@@H](CCCNC(=N)N)C(=O)N[C@@H](CC(C)C)C(=O)N[C@@H](C)C(=O)N[C@@H](CO)C(=O)N[C@@H](Cc1c[nH]cn1)C(=O)N[C@@H](CC(C)C)C(=O)N[C@@H](CCCNC(=N)N)C(=O)N[C@@H](CCCCN)C(=O)N[C@@H](CC(C)C)C(=O)N[C@@H](CCCNC(=N)N)C(=O)N[C@@H](CCCCN)C(=O)N[C@@H](CCCNC(=N)N)C(=O)N[C@@H](CC(C)C)C(=O)N[C@@H](CC(C)C)C(N)=O)C(C)C [COG133]
- LPS-induced phosphorylation of IκB (IκB): reduces
- nuclear NFκB (NFκB): reduced
- cytotoxic activity compared in words (B-CLL cells; [1]): slightly improved activity relative to the COG056
- Fold Change (B-CLL cells): 2.9

Compound: CC(=O)N[C@@H](C)C(=O)N[C@@H](CO)C(=O)NC(C)(C)C(=O)N[C@@H](CC(C)C)C(=O)N[C@@H](CCCNC(=N)N)C(=O)N[C@@H](CCCCN)C(=O)N[C@@H](CC(C)C)C(=O)NC(C)(C)C(=O)N[C@@H](CCCCN)C(=O)N[C@@H](CCCNC(=N)N)C(=O)N[C@@H](CC(C)C)C(=O)N[C@@H](CC(C)C)C(N)=O [COG1410, Ac-AS-Aib-LRKL-Aib-KRLL-NH2] (Ac-AS[Aib]LRKL[Aib]KRLL-NH2)
- cytotoxic activity compared in words (B-CLL cells): no difference in potency
- Fold Change (B-CLL cells): 2.3
- EC50 (B-CLL cells; read-out: EC50 (cytotoxicity of COG compounds on B-CLL cells), isolated B-CLL cells, 72 hours, MTS assay): 5.7 ± 3 µM
- potency for suppressing NO production (microglial cells): improved potency

Compound: LLRKRLKRLHSALRVRL [COG056, reference compound]
- Fold Change (B-CLL cells): 1.0
- EC50 (B-CLL cells; human, 72 hours): 12.9 ± 4.6 µM
